Source: patent publication US5079231A, “Immunostimulating peptides, a process for their preparation and pharmaceutical compositions containing them” (Ellem Industria Farmaceutica S.p.A., priority 1988, dated 1992)
No end group written: not given here.

Columns and labels:
T-lymphocytes = settings: known peptides, earlier patent applications and literature; cited from earlier work
[1] = Resistance to the in vitro simulated gastric ambient; assay type: in vitro ADME; settings: 37° C., 3 hours, gastric simulated juice USP XXl (HCl+pepsin)
Experimental: Resistance to the in vitro simulated gastric ambient
The hexapeptides Arg-Lys-Glu-Arg-Ala-Arg and Arg-Ala-Arg-Arg-Lys-Glu are stable at 37° C. for 3 hours in in vitro simulated gastric ambient using the gastric simulated juice USP XXl (HCl+pepsin).

[2] = known tripeptides; cited from earlier work

Substance | immunostimulating activity (maturation and functionality of T-lymphocytes) (T-lymphocytes) | Resistance to the in vitro simulated gastric ambient [1] | stability to the in vitro simulated gastric juice [2]
Arg-Lys-Asp | displays a similar behaviour |  | 
RARRKE [ARG--ALA--ARG--ARG--LYS--GLU, Arg-Ala-Arg-Arg-Lys-Glu] |  | stable | 
RKERAR [ARG--LYS--GLU--ARG--ALA--ARG, Arg-Lys-Glu-Arg-Ala-Arg] |  | stable | 
Arg-Gly-Asp | displays a similar behaviour |  | 
Arg-Lys-Glu | has immunostimulating properties |  | stable
Arg-Ala-Arg | endowed with immunostimulating activity |  | stable
